We go through 1 compound from patent US5849724A, “Microorganism of genus chrysosporium for use in preparing farnesyl transferase inhibitors” (Rhone-Poulenc Rorer S.A., priority 1995, dated 1998).

Each structure is given as a SMILES string.

For this test, the target named is T1, farnesyl transferase (Homo sapiens, UniProt P49354+P49356).
T1 construct: This enzyme has been partially purified from human THP1 cells; endogenous in cells; host or cells: human THP1 cells (enzyme partially purified from them)
In words: test for inhibition of farnesyl transferase by scintillation proximity assay (SPA). Type of test: biochemical. Conditions: partially purified Ftase from human THP1 cells, 60 minutes at 37° C., BLB and 3H FPP substrates. On the procedure:
The principle of the SPA (Scintillation Proximity Assay) technology is applied to the assay of the enzymatic activity of farnesyl transferase. According to this method, the farnesyl transferase inhibiting activity is determined by the quantity of [^3 H] farnesyl transferred from [^3 H] farnesyl pyrophosphate, ^3 H FPP, to a biotinylated acceptor substrate.
Method used to detect the active metabolites: test for inhibition of farnesyl transferase by scintillation proximity assay (SPA)
The donor substrate, farnesyl pyrophosphate, is labelled with tritium ^3 H FPP. […] The radiolabelled peptide excites the beads which then emit light which is quantified in a solid-liquid scintillation counter (Topcount®, Packard).
The plate is incubated for 60 minutes at 37° C. and the reaction is stopped by adding 150 μl of stopping reagent containing the SPA beads. The plate is sealed with an adhesive film and left for 30 minutes at room temperature in order to reach equilibrium, and then counted in the Topcount counter. […] The IC50 values of the compounds are calculated by nonlinear regression.
(In a scintillation proximity assay essentially only radioactivity close to the scintillant gives light.)

What is called IC50 is the concentration needed to halve the response being measured. A lower IC50 goes with inhibition by little substance. The compound `CC(C)C1CCC2C1(C)CCC1(C)C3=CCC4C(C)(C(=O)O)C(O)C(O)C(O)C4(COP(=O)(O)O)C3CCC21C` (stereo not shown) [Example 1] displayed an IC50 of 830 nM.
